Molecules are shown by their SMILES. Like-named read-outs stand apart in the source and are kept apart here.

Consider two compounds from US11939351B2, “Amorphous mixture comprising a neutral mono- or oligosaccharide and an acidic non-carbohydrate component” (GLYCOM A/S, priority 2017, dated 2024).

Series [1] is classed as physicochemical. From the text:
This means that an amorphous 2′-FL according to the present invention, the pH of the 5 w/w % aqueous solution of which is around 3.5-4.5, has a slightly shorter shelf-life than that for an amorphous 2′-FL having a pH of 4.5-5.8. […] In this regard it can be concluded that a fucosylated neutral HMO other than 2′-FL is hydrolytically as stable as a non-fucosylated neutral HMO.

Series [2] can be described thus: Forced storage stability of 2′-FL and DFL mixture samples at 60° C. and 80° C., analysed by HPAEC (Example 2). It counts as physicochemical. The method, then: One gram of each sample, separately, was put into a 4 ml glass vial and closed with screw lid containing teflon […]. The 8-week storage sample was put into a 60° C. oven, followed by the 4-week and the 2-week samples 4 and 6 weeks later, respectively), so the incubation of all samples ended in the same time. Similar pattern of experimental design was followed with the samples to be measured at 80° C. (4-week, 2-week and 1-week samples). The samples were kept in a freezer until they were put into the oven at a given time. Standards were kept in a freezer until analysis. The stability samples and the standards were analysed by HPAEC.

[3] abbreviates: in the acidic samples (pH = 4.5).
The mark [4] stands for this setting: in the neutral sample (pH = 7.0).

`C[C@@H]1O[C@@H](O[C@H]2[C@H](O[C@H]3[C@H](O[C@@H]4O[C@@H](C)[C@@H](O)[C@@H](O)[C@@H]4O)[C@@H](O)C(O)O[C@@H]3CO)O[C@H](CO)[C@H](O)[C@@H]2O)[C@@H](O)[C@H](O)[C@@H]1O` (some centres unmarked) [DFL, difucosyllactose]: the hydrolytic stability entry in series [1] is given as “hydrolytically stabile”. Further, the “hydrolysis (into fucose and lactose)” value in series [2] (setting [3]) and in series [2] (setting [4]) was “did not undergo hydrolysis” each time.

For `C[C@@H]1O[C@@H](O[C@H]2[C@H](O[C@H]3[C@H](O)[C@@H](O)C(O)O[C@@H]3CO)O[C@H](CO)[C@H](O)[C@@H]2O)[C@@H](O)[C@H](O)[C@@H]1O` (some centres unmarked) [2′-FL, 2′-fucosyllactose], the “hydrolysis to fucose and lactose” value in series [1] (at a pH around 4.0-4.5) is “still detectable”; in series [1] (at around a pH of 3.5), “low degree of hydrolysis”. For the same compound, in series [2] (estimated from the Example 2 data), the “preferred pH range in which no substantial hydrolysis and rearrangement occur” value is listed as 5.2-5.8. In addition, the “hydrolysis (into fucose and lactose)” value in series [2] (setting [3]) is recorded as “slight hydrolysis”; in series [2] (setting [4]) it was “did not occur”.
